According to patent US12060349B2, “Glucosylceramide synthase inhibitors” (Genzyme Corporation, priority 2012, dated 2024):
Like-named read-outs stand apart in the source and are kept apart here.

Assays:
[1] = tested on: GM3 expression on the cell surface, B16 mouse melanoma cells; test: cell based phenotypic assay, cell surface GM3 by antibody mediated immunofluorescence, B16 (GM3 B16 IC50); conditions: 50% inhibition of GM3 expression on the cell surface
Method: (§1) The cell based assay was performed in two different cell types, B16 and C32. Cell viability was also assessed in the second, cell-based assay.
(§2) The “Compound Number” in the table corresponds to the compound disclosed in the Example of the same number. […] The results of the cell based assays (performed in two different cell systems, i.e. B16 mouse melanoma or C32 human melanoma cells) are expressed as “GM3 B16 IC50” or “GM3 C32 IC50” for the B16 assay and the C32 assay, respectively. […] The results of the viability assays are expressed as “Viability, B16 IC50” or “Viability, C32 IC50”, respectively. These values represent the concentration of the compound causing 50% cell death. Values greater than 10 represent a lack of cell death.

B16 mouse melanoma cells = test: cell viability in the B16 cell-based assay (Viability, B16 IC50); conditions: Mus musculus
Method: as §1, §2

[2] = tested on: GM3 expression on the cell surface, C32 human melanoma cells; test: cell based phenotypic assay, cell surface GM3 by antibody mediated immunofluorescence, C32 (GM3 C32 IC50); conditions: 50% inhibition of GM3 expression on the cell surface
Method: as §1, §2

[3] = target: T1, glucosylceramide synthase (Homo sapiens, UniProt Q16739); test: microsomal assay measuring conversion of ceramide to glucosylceramide by HPLC (GCS IC50); type: biochemical; conditions: concentration causing 50% inhibition of glucosylceramide synthase activity
T1 construct: Microsomes were isolated from A375 human melanoma cells; endogenous in cells; host or cells: A375 human melanoma cells (microsomal fraction, 100,000 g pellet)
T1 sequence (Q16739 1-394): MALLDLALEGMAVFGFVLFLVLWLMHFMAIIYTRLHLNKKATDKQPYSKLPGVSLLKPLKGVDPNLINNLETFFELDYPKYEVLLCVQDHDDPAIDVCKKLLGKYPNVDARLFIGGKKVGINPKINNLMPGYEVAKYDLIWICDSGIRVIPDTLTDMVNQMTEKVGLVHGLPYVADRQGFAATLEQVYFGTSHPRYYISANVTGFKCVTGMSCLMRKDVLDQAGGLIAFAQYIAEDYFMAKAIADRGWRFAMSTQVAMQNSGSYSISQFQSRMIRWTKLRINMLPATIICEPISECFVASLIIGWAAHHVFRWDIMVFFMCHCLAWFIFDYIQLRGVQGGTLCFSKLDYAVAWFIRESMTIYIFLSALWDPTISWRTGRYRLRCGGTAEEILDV
Method: Inhibition of glucosylceramide synthase activity for certain compounds of the invention were measured with 1) a microsomal assay that directly measures the conversion of ceramide to glucosylceramide by HPLC and 2) second, cell based, phenotypic assay that monitors cell surface expression of the downstream lipid GM3 by antibody mediated immunofluorescence. The cell based assay was performed in two different cell types, B16 and C32. Cell viability was also assessed in the second, cell-based assay.
The “Compound Number” in the table corresponds to the compound disclosed in the Example of the same number. The results of the microsomal assay are expressed as “GCS IC50”, which represents the concentration of the compound causing 50% inhibition of glucosylceramide synthase activity. The results of the cell based assays (performed in two different cell systems, i.e. B16 mouse melanoma or C32 human melanoma cells) are expressed as “GM3 B16 IC50” or “GM3 C32 IC50” for the B16 assay and the C32 assay, respectively. These values represent the concentration of the compound causing 50% inhibition of GM3 expression on the cell surface. The results of the viability assays are expressed as “Viability, B16 IC50” or “Viability, C32 IC50”, respectively. These values represent the concentration of the compound causing 50% cell death. Values greater than 10 represent a lack of cell death.

C32 human melanoma cells = test: cell viability in the C32 cell-based assay (Viability, C32 IC50); conditions: concentration causing 50% cell death, values greater than 10 represent a lack of cell death
Method: as §1, §2

[4] = Mus musculus, B16 mouse melanoma cells, read-out: GM3 B16 IC50
[5] = B16, B16 cells, concentration causing 50% cell death, values greater than 10 represent a lack of cell death, read-out: Viability, B16 IC50
[6] = Homo sapiens, C32 human melanoma cells, read-out: GM3 C32 IC50
[7] = Homo sapiens, C32, C32 cells, read-out: Viability, C32 IC50

| SMILES | IC50 ([1]; Mus musculus, read-out: GM3 B16 IC50, B16 mouse melanoma cells) | IC50 (B16 mouse melanoma cells; B16, read-out: Viability, B16 IC50) | IC50 ([2]; Homo sapiens, read-out: GM3 C32 IC50, C32 human melanoma cells) | IC50 [3] | IC50 (C32 human melanoma cells; Homo sapiens, C32, read-out: Viability, C32 IC50, C32 cells) | IC50 [1, 4] | IC50 (B16 mouse melanoma cells; [5]) | IC50 [2, 6] | IC50 (C32 human melanoma cells; [7]) | IC50 ([1]; B16 mouse melanoma cells, read-out: GM3 B16 IC50) | IC50 ([2]; C32 human melanoma cells, read-out: GM3 C32 IC50) | IC50 (C32 human melanoma cells; C32 cells, read-out: Viability, C32 IC50) |
| --- | --- | --- | --- | --- | --- | --- | --- | --- | --- | --- | --- | --- |
| CC(C)(NC(=O)OC1CN2CCC1CC2)c1ccc(-c2ccc(CCc3c[nH]nn3)cc2)cc1 (stereo not drawn) [Example 227, Quinuclidin-3-yl (2-(4′-(2-(1H-1,2,3-triazol-4-yl)ethyl)-[1,1′-biphenyl]-4-yl)propan-2-yl)carbamate] | 122 nM | ≥ 10000 nM | 10.4 nM | 27 nM | 1000 nM |  |  |  |  |  |  |  |
| CC1(NC(=O)C2(F)CCN(c3nccc(-c4ccc(F)cc4)n3)CC2)CN2CCC1CC2 (stereo not drawn) [Example 95, 4-Fluoro-1-(4-(4-fluorophenyl)pyrimidin-2-yl)-N-(3-methylquinuclidin-3-yl)piperidine-4-carboxamide] |  |  |  | 0.585 nM |  | 20 nM | 4690 nM | 0.0836 nM | 31.6 nM |  |  |  |
| COCCOCc1ccc(-c2nc(N3CCC(C(=O)NC4(C)CCN5CCC4CC5)CC3)ncc2F)cc1 (stereo not drawn) [Example 58, 1-(5-Fluoro-4-(4-((2-methoxyethoxy)methyl)phenyl)pyrimidin-2-yl)-N-(4-methyl-1-azabicyclo[3.2.2]nonan-4-yl)piperidine-4-carboxamide] |  |  |  | 3.39 nM |  | 40.5 nM | ≥ 10000 nM | 0.17 nM | 1000 nM |  |  |  |
| COCCOCc1ccc(-c2ccc(C3(NC(=O)OC4CCN5CCC4CC5)CC3)cc2)cc1 (stereo not drawn) [Example 204, 1-Azabicyclo[3.2.2]nonan-4-yl (1-(4′-((2-methoxyethoxy)methyl)-[1,1′-biphenyl]-4-yl)cyclopropyl)carbamate] |  |  |  | 43.3 nM |  | 99.3 nM | ≥ 10000 nM | 8.26 nM | 1470 nM |  |  |  |
| C[C@@H]1CN(C(=O)NC2(C)CCN3CCC2CC3)CCN1c1nccc(-c2ccccc2)n1 (single isomer, unassigned) [Example 138] |  |  |  | 902 nM |  |  | 9310 nM |  |  | > 10000 nM | 63.6 nM | 3160 nM |
| COCCOc1ccc(-c2cccc(C(C)(C)NC(=O)OC3CCN4CCC3CC4)c2)nc1 (stereo not drawn) [Example 311, 1-Azabicyclo[3.2.2]nonan-4-yl 2-(3-(5-(2-methoxyethoxy)pyridin-2-yl)phenyl)propan-2-ylcarbamate] |  |  |  | 76 nM |  | 103 nM | ≥ 10000 nM | 8.5 nM | 3160 nM |  |  |  |
| CC1(NC(=O)C2(F)CCN(c3nccc(-c4ccc(OCCF)cc4)n3)CC2)CCN2CCC1CC2 (stereo not drawn) [Example 90, 4-Fluoro-1-(4-(4-(2-fluoroethoxy)phenyl)pyrimidin-2-yl)-N-(4-methyl-1-azabicyclo[3.2.2]nonan-4-yl)piperidine-4-carboxamide] |  |  |  | 2.26 nM |  | 13.4 nM | 3060 nM | 0.0953 nM | 215 nM |  |  |  |
| CCCC1(NC(=O)NC2(c3ccc(-c4ccc(COCc5cccnc5)cc4)cc3)CC2)CN2CCC1CC2 (stereo not drawn) [Example 218, 1-(3-Propylquinuclidin-3-yl)-3-(1-(4′-((pyridin-3-ylmethoxy)methyl)-[1,1′-biphenyl]-4-yl)cyclopropyl)urea] |  |  |  | 11 nM |  | 80.9 nM | 7950 nM | 2.97 nM | ≥ 10000 nM |  |  |  |
| COCCCOc1ccc(-c2nc(N3CCC(C(=O)NC4(C)CCN5CCC4CC5)CC3)ncc2F)cc1 (stereo not drawn) [Example 62, 1-(5-Fluoro-4-(4-(3-methoxypropoxy)phenyl)pyrimidin-2-yl)-N-(4-methyl-1-azabicyclo[3.2.2]nonan-4-yl)piperidine-4-carboxamide] |  |  |  | 0.931 nM |  | 10.5 nM | 2390 nM | 0.109 nM | 100 nM |  |  |  |
| CC1(NC(=O)C2(F)CCN(c3ncc(C#N)c(Oc4ccc(F)cc4)n3)CC2)CN2CCC1CC2 (stereo not drawn) [Example 122, 1-(5-Cyano-4-(4-fluorophenoxy)pyrimidin-2-yl)-4-fluoro-N-(3-methylquinuclidin-3-yl)piperidine-4-carboxamide] |  |  |  | 4.41 nM |  | 112 nM | ≥ 10000 nM | 0.639 nM | 316 nM |  |  |  |
| CC(C)(NC(=O)NC1(C)CCN2CCC1CC2)c1ccc(Oc2ccc(C(=O)N3CCCCC3)cc2)cc1 (stereo not drawn) [Example 300, 1-(4-Methyl-1-aza-bicyclo[3.2.2]nonan-4-yl)-3-(2-(4-(4-(piperidine-1-carbonyl)phenoxy)phenyl)propan-2-yl)urea] |  |  |  | 6.85 nM |  | 87.6 nM | ≥ 10000 nM | 1.54 nM | 316 nM |  |  |  |
| COCCCOc1ccc(-c2cccc(C(C)(C)NC(=O)N3CCN4CCC3CC4)c2)nn1 [Example 314, N-(2-(3-(6-(3-Methoxypropoxy)pyridazin-3-yl)phenyl)propan-2-yl)-1,4-diazabicyclo[3.2.2]nonane-4-carboxamide] |  |  |  | 2630 nM |  | 4910 nM | ≥ 10000 nM | 118 nM | ≥ 10000 nM |  |  |  |
| COCCCOc1ccc(-c2ccc(C3(NC(=O)NC4(C)CN5CCC4CC5)CC3)cc2)cc1 (stereo not drawn) [Example 176, 1-(1-(4′-(3-Methoxypropoxy)-[1,1′-biphenyl]-4-yl)cyclopropyl)-3-(3-methylquinuclidin-3-yl)urea] |  |  |  | 4.1 nM |  | 22 nM | ≥ 10000 nM | 1.47 nM | ≥ 10000 nM |  |  |  |
| CCC1(NC(=O)NC(C)(C)c2ccc(-c3ccc(C(=O)N4CCC(F)(F)CC4)cc3)cc2)CN2CCC1CC2 (stereo not drawn) [Example 272, 1-(2-(4′-(4,4-Difluoropiperidine-1-carbonyl)biphenyl-4-yl)propan-2-yl)-3-(3-ethylquinuclidin-3-yl)urea] |  |  |  | 16.4 nM |  | 24.9 nM | ≥ 10000 nM | 2.15 nM | 1000 nM |  |  |  |
| COCCOCc1ccc(-c2ccnc(N3CCC(F)(C(=O)NC4(C)CCN5CCC4CC5)CC3)n2)cc1 (stereo not drawn) [Example 89, 4-Fluoro-1-(4-(4-((2-methoxyethoxy)methyl)phenyl)pyrimidin-2-yl)-N-(4-methyl-1-azabicyclo[3.2.2]nonan-4-yl)piperidine-4-carboxamide] |  |  |  | 8.23 nM |  | 109 nM | 9470 nM | 1.17 nM | 316 nM |  |  |  |
| CC1(NC(=O)C2CCN(c3ccnc(-c4ccc(F)cc4)c3)CC2)CCN2CCC1CC2 (stereo not drawn) [Example 108, 1-(2-(4-Fluorophenyl)pyridin-4-yl)-N-(4-methyl-1-azabicyclo[3.2.2]nonan-4-yl)piperidine-4-carboxamide] |  |  |  | 80.8 nM |  | 1080 nM | 5650 nM | 54.1 nM | 3160 nM |  |  |  |
| O=C(NC1CN2CCC1CC2)C1CCN(c2nccc(-c3ccc(F)cc3)n2)CC1 (stereo not drawn) [Example 45, 1-(4-(4-Fluorophenyl)pyrimidin-2-yl)-N-(quinuclidin-3-yl)piperidine-4-carboxamide] |  |  |  | 2.67 nM |  | 125 nM | ≥ 10000 nM | 0.457 nM | 1000 nM |  |  |  |
| CC1(NC(=O)C2CCN(c3ncc(Oc4ccc(F)cc4)cn3)CC2)CCN2CCC1CC2 (stereo not drawn) [Example 130, 1-(5-(4-Fluorophenoxy)pyrimidin-2-yl)-N-(4-methyl-1-azabicyclo[3.2.2]nonan-4-yl)piperidine-4-carboxamide] |  |  |  | 0.889 nM |  | 16.9 nM | 5670 nM | 0.156 nM | 316 nM |  |  |  |
